Laboratory results: publication PMC9346611, “Impact of an Adenosine A2A Receptor Agonist and Antagonist on Binding of the Dopamine D2 Receptor Ligand [^11C]raclopride in the Rodent Striatum” (Molecular Pharmaceutics, 2022)
Read-outs that look alike come from different tables or passages of the source. Marks after values point to notes of the source that are not given here.

Legend:
[1] = molecular target: dopamine D2/D3 receptors; parameters: method as in PMID 2528555; conditions: cited from earlier work
[2] = Heart rate monitoring with pulse oximeters during PET scan; type: in vivo; conditions: 1 mg/kg, persisted throughout the scan
[3] = tested on: dopamine D2R; parameters: method as in PMID 1678519; conditions: rat striatal membrane preparations; cited from earlier work
[4] = tested on: D2R; parameters: method as in PMID 26100888; conditions: transiently transfected CHO cells; cited from earlier work
[5] = tested on: D2R; conditions: CHO cells co-transfected with A2AR and D2R; cited from earlier work
[6] = tested on: dopamine D2 receptor; conditions: 1 mg/kg
Method: Pretreatment of animals with a high dose of a specific (nonradioactive) receptor ligand is the standard method used in PET imaging to assess whether a PET tracer binds to its intended target. […] Only one PET scan was made in animals subjected to arterial blood sampling.
Blood samples with a volume of 0.10–0.13 mL were drawn from the femoral artery at 10, 20, 30, 40, 50, 60, and 90 s and 2, 3, 5, 7.5, 10, 15, 30, and 60 min after tracer administration. After the collection of each sample, an equal volume of saline with 1% heparin was infused into the artery to compensate for the blood volume loss. Larger blood samples (0.8–1 mL) were drawn at 5, 10, 30, and 60 min for [^11C]raclopride metabolite analysis. From each blood sample, a plasma sample was obtained by the centrifugation of whole blood for 5 min at 3000 g.

[7] = tested on: D2R; parameters: method as in PMID 11435907; conditions: rat brain slices, striatal area; cited from earlier work
[8] = tested on: dopamine release; parameters: method as in PMID 15525341; conditions: locally administered 3, 10, 50, and 100 μM; cited from earlier work
[9] = tested on: dopamine release; parameters: method as in PMID 10502311; conditions: low doses 0.01–1 μM; cited from earlier work
[10] = tested on: D2R; parameters: method as in PMID 11435907; conditions: human brain slices, striatal area; cited from earlier work
[11] = tested on: human D2R; parameters: method as in PMID 8982704, PMID 10617149; conditions: SH-SY5Y cells; cited from earlier work
[12] = cited from earlier work
[13] = parameters: method as in PMID 1684818; conditions: cited from earlier work
[14] = tested on: D2R/D3R; parameters: method as in PMID 25871974; conditions: human, oral 300 mg; cited from earlier work

Compound	affinity of D2R for radioligands [^3H]quinpirole and [^3H]raclopride [4]	k3, accumbens (2TCM) [6]	k3, caudate-putamen (2TCM) [6]	k3, cerebellum (2TCM) [6]	k3, globus pallidus (2TCM) [6]	k3, striatum (2TCM) [6]	k3/k4, accumbens (2TCM) [6]	k3/k4, caudate-putamen (2TCM) [6]	k3/k4, cerebellum (2TCM) [6]	k3/k4, globus pallidus (2TCM) [6]	k4, accumbens (2TCM) [6]	k4, caudate-putamen (2TCM) [6]	k4, cerebellum (2TCM) [6]	k4, globus pallidus (2TCM) [6]	k4, striatum (2TCM) [6]	further results
CCN1CCC[C@H]1CNC(=O)c1c(O)c(Cl)cc(Cl)c1OC (racemic) [[^11C]raclopride]	–	–	–	–	–	–	–	–	–	–	–	–	–	–	–	Kd ([1]; read-out: affinity (Kd) by equilibrium analysis): 10 nM; Kd ([1]; read-out: equilibrium dissociation constant KdVR by compartmental modeling): 6.2 nM
CCNC(=O)[C@H]1O[C@@H](n2cnc3c(N)nc(NCCc4ccc(CCC(=O)O)cc4)nc32)[C@H](O)[C@@H]1O [CGS21680]	reduces the affinity	0.012 ± 0.006*** min^–1	0.034 ± 0.014*** min^–1	0.028 ± 0.012*** min^–1	0.029 ± 0.017*** min^–1	0.033 ± 0.013*** min^–1	0.87 ± 0.20	1.28 ± 0.35	1.19 ± 0.32	1.63 ± 3.6	0.015 ± 0.008*** min^–1	0.026 ± 0.009** min^–1	0.023 ± 0.010** min^–1	0.022 ± 0.021** min^–1	0.026 ± 0.009** min^–1	heart rate, reduction in some animals down to [2]: 94 bpm; decrease of affinity of dopamine D2R for agonist L-(−)-[^3H]NPA [3]: 40%; change of D2R numbers [5]: without any change; change of affinity of D2R for dopamine [5]: three- to fourfold decrease; IC50 values of competition between [^125I]iodosulpiride and dopamine [7]: significant increase; dopamine release in entire striatum and shell of nucleus accumbens [8]: increase; electrically evoked dopamine release [9]: inhibit; IC50 values of competition between [^125I]iodosulpiride and dopamine [10]: significant increase; change of affinity of D2R to agonists [11]: two- to threefold decreased
CCn1c(=O)c2c(nc(/C=C/c3ccc(OC)c(OC)c3)n2C)n(CC)c1=O [KW6002, istradefylline]	–	0.035 ± 0.015 min^–1	0.086 ± 0.027** min^–1	0.072 ± 0.028 min^–1	0.087 ± 0.028* min^–1	0.085 ± 0.027** min^–1	0.91 ± 0.27	2.02 ± 0.52	1.75 ± 0.52	1.86 ± 0.54	0.039 ± 0.013 min^–1	0.043 ± 0.012 min^–1	0.041 ± 0.011 min^–1	0.048 ± 0.013 min^–1	0.043 ± 0.011 min^–1	peripheral effects ([12]; rat, in vivo): does not have potent peripheral effects; tolerability after intraperitoneal administration ([12]; rats, doses up to 3 mg/kg): well tolerated; k3/k4, striatum (2TCM) [6]: 2.00 ± 0.53
CCNC(=O)[C@H]1O[C@@H](n2cnc3c(N)ncnc32)[C@H](O)[C@@H]1O [NECA, 5’-N-ethylcarboxamide adenosine]	–	–	–	–	–	–	–	–	–	–	–	–	–	–	–	effect on heart rate, bolus of low doses [13]: tachycardia; effect on heart rate, high dose ([13]; total dose of 3 mg/kg infused over 60 min): rapid reduction in heart rate
Cn1c(=O)c2c(ncn2C)n(C)c1=O [caffeine]	reduces the affinity	–	–	–	–	–	–	–	–	–	–	–	–	–	–	increase of D2R/D3R availability in putamen and ventral striatum [14]: 5–6%
